Experimental data from patent US20030027856A1, “Tolterodine metabolites” (priority 2001, published 2003).

Key:
[1] = Cardiac side effects: QTc interval of the EKG in anesthetized guinea pigs; format: in vivo; conditions: guinea pig, intravenous infusion over 30 min
Experimental: Male guinea pigs (450-600 g) are anesthetized with freshly prepared dialurethane sodium. The jugular vein is catheterized for iv administration of test drugs and the trachea is exposed and cannulated. Subdermal electrodes are positioned for Lead II electrocardiogram recording, monitored on a Grass Polygraph recorder, set at a paper speed of 50 mm/sec. The animals are allowed to stabilize for 30 minute after completion of surgery, and three baseline EKG recordings are then made at 10-minute intervals. The animals are then given a dose of the test compound or vehicle as an intravenous infusion over 30 min. EKG recordings are used to determine QT intervals and heart rates. To compensate for variations in heart rates, QTc intervals are calculated from QT- and RR-intervals as known to those skilled in the art. Prolongation of QTc is indicative of a prolonged action potential, caused by an inhibition of the delayed rectifier potassium channel. Prolongation of QTc is the known cause of Torsades de Pointes ventricular fibrillation by drugs such as terfenadine, astemizole and terodiline (now withdrawn from the market).

muscarinic receptors = assay: Functional characterization of antimuscarinic activities on smooth muscle strips; design: species or system guinea pig; conditions: pharmacological studies in comparison with tolterodine
Experimental: Experiments are performed using methods similar to those described by Kachur et al, 1988 (R and S enantiomers of oxybutynin: Pharmacological effects in guinea pig bladder and intestine. J Pharmacol Exp Ther 247: 867-872) and Noronha-Blob and Kachur, 1991 (Enantiomers of Oxybutynin: In vitro pharmacological characterization at M1, M2 and M3 muscarinic receptors and in vivo effects on urinary bladder contraction, mydriasis and salivary secretion in guinea pigs. J Pharmacol Exp Ther 256: 562-567). Strips of tissue (approximately 10 mm long and 1.5 mm wide) are removed from the body of the urinary bladder of male guinea pigs weighing 400-600 g. […] Contractions are recorded with transducers on a polygraph.
The present series of experiments focuses on the anticholinergic actions of DES-TOLT, and RS-DES-TOLT and their metabolites. In these experiments, in order to assess the viability of each tissue and to serve as a frame of reference, contractions of each strip of tissue are recorded initially in response to exposure to tissue medium in which NaCl is replaced by KCl to yield a concentration of 137.7 mM KCl in the medium. This is followed by return to the standard medium, and then by exposures to progressively in creasing concentrations of carbachol, with separate exposures to each concentration only until the peak response has been recorded. […]

Row | Compound | prolongation of the QTc-interval of the EKG [1] | antimuscarinic activities (muscarinic receptors)
1 | Cc1ccc(O)c(C(CCNC(C)C)c2ccccc2)c1 (centres unmarked) [RS-DES-TOLT, RS-N-Isopropyl-3-(2-hydroxy-5-methylphenyl)-3-phenylpropylamine] | did not cause a prolongation of the QTc interval | –
2 | CC(C)N(CCC(c1ccccc1)c1cc(CO)ccc1O)C(C)C (centres unmarked) [RS-5-HM, RS-N,N-diisopropyl-3-(2-hydroxy-5-(hydroxymethyl)phenyl)-3-phenylpropylamine] | did not cause a prolongation of the QTc interval | –
3 | Cc1ccc(O)c(C(CCN(C(C)C)C(C)C)c2ccccc2)c1 (centres unmarked) [RS-TOLT, RS-N,N-diisopropyl-3-(2-hydroxy-5-methylphenyl)-3-phenylpropylamine, reference compound] | cause a prolongation of the QTc-interval | –
4 | Cc1ccc(O)c([C@H](CCNC(C)C)c2ccccc2)c1 [DES-TOLT, R(+)-N-isopropyl-3-(2-hydroxy-5-methylphenyl)-3-phenylpropylamine] | did not cause a prolongation of the QTc interval | potent antimuscarinic activities
5 | Cc1ccc(O)c([C@H](CCN(C(C)C)C(C)C)c2ccccc2)c1 [TOLT, R(+)-N,N-diisopropyl-3-(2-hydroxy-5-methylphenyl)-3-phenylpropylamine] | cause a prolongation of the QTc-interval | –
6 | CC(C)NCC[C@H](c1ccccc1)c1cc(CO)ccc1O [5-HM-DES-TOLT, R(+)-N-Isopropyl-3-(2-hydroxy-5-(hydroxymethyl)phenyl)-3-phenylpropylamine] | – | potent antimuscarinic activities
7 | CC(C)N(CC[C@H](c1ccccc1)c1cc(CO)ccc1O)C(C)C [5-HM, R(+)-N,N-diisopropyl-3-(2-hydroxy-5-(hydroxymethyl)phenyl)-3-phenylpropylamine] | did not cause a prolongation of the QTc interval | –
